Laboratory results: patent US5488060A, “Substituted thiadiazoles, compositions containing them and their use as antimicrobial and marine antifouling agents” (The Dow Chemical Company, priority 1994, dated 1996)
Values after ≈ are worked out from the molar mass of the structure shown. Where two headings read alike, the source gives them in different places.

How the values were obtained:
Assay type in all cases: cell-based
[1] = test system: Enterobacter aerogenes (Ea); assay: Minimum inhibitory concentration (MIC) in nutrient agar, Enterobacter aerogenes; details: Klebsiella aerogenes, 48 h
In short: (§1)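 Agar dilution; nutrient agar at pH 6.8 (neutral) and pH 8.2 (alkaline, tricine-buffered). Compound from 1% acetone/water stock, final 500–1.0 ppm. Inoculum 10^8 CFU/mL via Steer's replicator. 30° C, 48 h; growth/no growth read.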

Trichoderma viride (Tv) = assay: Minimum inhibitory concentration (MIC) in malt yeast agar, Trichoderma viride
In short: (§2)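 Fungal inocula from 7-day malt yeast agar cultures (30° C) were suspended in saline with octylphenoxy polyethoxy ethanol, diluted 1:9, and spotted onto malt yeast agar (pH 5.5) containing test compound at 0–500 ppm. Growth assessed after 72 hours at 30° C to give MIC.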

[2] = test system: Staphylococcus aureus (Sa); assay: Minimum inhibitory concentration (MIC) in nutrient agar, Staphylococcus aureus
In short: as §1

Aspergillus niger (An) = assay: Minimum inhibitory concentration (MIC) in malt yeast agar, Aspergillus niger
In short: as §2

[3] = test system: Aureobasidium pullulan (Ap); assay: Minimum inhibitory concentration (MIC) in malt yeast agar, Aureobasidium pullulan
In short: as §2

[4] = test system: Saccharomyces cerevisiae (Sc); assay: Minimum inhibitory concentration (MIC) in malt yeast agar, Saccharomyces cerevisiae
In short: (§3)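 Plates of pH 5.5 malt yeast agar carried test compound dispersed from a one percent acetone–water solution, final 500 to zero ppm. After diluted slant-culture suspensions were applied, plates were kept at 30 °C and examined at 72 h for fungi, 48 h for yeast.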

[5] = test system: Salmonella choleraesuis (Se); assay: Minimum inhibitory concentration (MIC) in nutrient agar, Salmonella choleraesuis; details: Salmonella enterica
In short: as §1

[6] = test system: Penicillium chrysogenum (Pc); assay: Minimum inhibitory concentration (MIC) in malt yeast agar, Penicillium chrysogenum
In short: as §2

Candida albicans (Ca) = assay: Minimum inhibitory concentration (MIC) in malt yeast agar, Candida albicans
In short: as §3

Fusarium oxysporum (Fo) = assay: Minimum inhibitory concentration (MIC) in malt yeast agar, Fusarium oxysporum
In short: as §2

Bacillus subtilis (Bs) = assay: Minimum inhibitory concentration (MIC) in nutrient agar, Bacillus subtilis
In short: as §1

Escherichia coli (Ec) = assay: Minimum inhibitory concentration (MIC) in nutrient agar, Escherichia coli
In short: as §1

[7] = test system: Klebsiella pneumoniae (Kp); assay: Minimum inhibitory concentration (MIC) in nutrient agar, Klebsiella pneumoniae
In short: as §1

[8] = test system: Pseudomonas aeruginosa (Pa); assay: Minimum inhibitory concentration (MIC) in nutrient agar, Pseudomonas aeruginosa; details: 30° C., 48 hours, read-out: Minimum Inhibitory Concentration, Pa
In short: as §1

[9] = test system: Pseudomonas aeruginosa (PRD-10); assay: Minimum inhibitory concentration (MIC) in nutrient agar, Pseudomonas aeruginosa PRD-10
In short: as §1

Proteus vulgaris (Pv) = assay: Minimum inhibitory concentration (MIC) in nutrient agar, Proteus vulgaris; details: 48 h
In short: as §1

[10] = pH 6.8, read-out: Minimum Inhibitory Concentration, Ea
[11] = pH 8.2, read-out: Minimum Inhibitory Concentration, Ea
[12] = pH 5.5, malt yeast agar, 30° C., 72 hours for fungi, read-out: Minimum Inhibitory Concentration, Tv
[13] = 48 h, pH 8.2, read-out: Minimum Inhibitory Concentration, Sa
[14] = pH 6.8, nutrient agar, 30° C., 48 hours, read-out: Minimum Inhibitory Concentration, Sa
[15] = pH 5.5, malt yeast agar, 30° C., 72 hours for fungi, read-out: Minimum Inhibitory Concentration, An
[16] = pH 5.5, malt yeast agar, 30° C., read-out: Minimum Inhibitory Concentration, Ap
[17] = pH 5.5, malt yeast agar, 30° C., 48 hours for yeast, read-out: Minimum Inhibitory Concentration, SC
[18] = 48 h, pH 6.8, read-out: Minimum Inhibitory Concentration, SC
[19] = 48 h, pH 8.2, read-out: Minimum Inhibitory Concentration, SC
[20] = pH 5.5, malt yeast agar, 30° C., 72 hours for fungi, read-out: Minimum Inhibitory Concentration, PC
[21] = pH 5.5, malt yeast agar, 30° C., 48 hours for yeast, read-out: Minimum Inhibitory Concentration, Ca
[22] = pH 5.5, malt yeast agar, 30° C., 72 hours for fungi, read-out: Minimum Inhibitory Concentration, Fo
[23] = 48 h, pH 8.2, read-out: Minimum Inhibitory Concentration, Bs
[24] = pH 6.8, nutrient agar, 30° C., 48 hours, read-out: Minimum Inhibitory Concentration, Bs
[25] = 48 h, pH 6.8, read-out: Minimum Inhibitory Concentration, Ec
[26] = 48 h, pH 8.2, read-out: Minimum Inhibitory Concentration, Ec
[27] = 48 h, pH 8.2, read-out: Minimum Inhibitory Concentration, Kp
[28] = pH 6.8, nutrient agar, 30° C., 48 hours, read-out: Minimum Inhibitory Concentration, Kp
[29] = 48 h, pH 6.8, read-out: Minimum Inhibitory Concentration, PRD
[30] = 48 h, pH 8.2, read-out: Minimum Inhibitory Concentration, PRD
[31] = pH 6.8, read-out: Minimum Inhibitory Concentration, Pv
[32] = pH 8.2, read-out: Minimum Inhibitory Concentration, Pv
[33] = 72 h, pH 5.5, read-out: Minimum Inhibitory Concentration, An
[34] = pH 5.5, read-out: Minimum Inhibitory Concentration, Ap
[35] = 48 h, pH 6.8, read-out: Minimum Inhibitory Concentration, Bs
[36] = pH 8.2, nutrient agar, 30° C., 48 hours, read-out: Minimum Inhibitory Concentration, Sa
[37] = pH 8.2, nutrient agar, 30° C., 48 hours, read-out: Minimum Inhibitory Concentration, Ec
[38] = 72 h, pH 5.5, read-out: Minimum Inhibitory Concentration, Tv
[39] = 48 h, pH 5.5, read-out: Minimum Inhibitory Concentration, Ca
[40] = 72 h, pH 5.5, read-out: Minimum Inhibitory Concentration, Fo

SMILES | MIC [1, 10] [µg/mL] | MIC [1, 11] [µg/mL] | MIC (Trichoderma viride (Tv); [12]) [µg/mL] | MIC [2, 13] [µg/mL] | MIC [2, 14] [µg/mL] | MIC [3, 16] [µg/mL] | MIC [4, 17] [µg/mL] | MIC [5, 18] [µg/mL] | MIC [5, 19] [µg/mL] | MIC [6, 20] [µg/mL] | MIC (Bacillus subtilis (Bs); [23]) [µg/mL] | MIC (Escherichia coli (Ec); [25]) [µg/mL] | MIC [7, 27] [µg/mL] | MIC [7, 28] [µg/mL] | MIC ([8]; pH 6.8, nutrient agar) [µg/mL] | MIC ([8]; pH 8.2, nutrient agar) [µg/mL] | MIC [9, 29] [µg/mL] | MIC [9, 30] [µg/mL] | MIC (Proteus vulgaris (Pv); [31]) [µg/mL] | MIC (Proteus vulgaris (Pv); [32]) [µg/mL] | other results
N#CSCSc1nsnc1-c1ccc([N+](=O)[O-])cc1 [Example XXIX, 4-(4-Nitrophenyl)-3-thiocyanatomethylthio-1,2,5-thiadiazole] | 500 (≈ 1610 µM) | > 500 | 9 (≈ 29 µM) | 500 (≈ 1610 µM) | 500 (≈ 1610 µM) | > 500 | 9 (≈ 29 µM) | 500 (≈ 1610 µM) | > 500 | 9 (≈ 29 µM) | 500 (≈ 1610 µM) | 500 (≈ 1610 µM) | > 500 | 500 (≈ 1610 µM) | 500 (≈ 1610 µM) | > 500 | 500 (≈ 1610 µM) | > 500 | 500 (≈ 1610 µM) | > 500 | MIC (Aspergillus niger (An); [15]): 9 µg/mL (≈ 29 µM); MIC (Candida albicans (Ca); [21]): 9 µg/mL (≈ 29 µM); MIC (Fusarium oxysporum (Fo); [22]): 9 µg/mL (≈ 29 µM); MIC (Bacillus subtilis (Bs); [24]): 50 µg/mL (≈ 161 µM); MIC (Escherichia coli (Ec); [26]): 500 µg/mL (≈ 1610 µM)
CS(=O)(=O)c1ccc(-c2nsnc2SCSC#N)cc1 [Example XXV, 4-(4-Methylsulfonylphenyl)-3-thiocyanatomethylthio-1,2,5-thiadiazole] | 500 (≈ 1460 µM) | > 500 | > 500 | 500 (≈ 1460 µM) | 500 (≈ 1460 µM) | – | 500 (≈ 1460 µM) | 500 (≈ 1460 µM) | > 500 | 9 (≈ 26.2 µM) | 500 (≈ 1460 µM) | 500 (≈ 1460 µM) | > 500 | 500 (≈ 1460 µM) | 500 (≈ 1460 µM) | > 500 | 500 (≈ 1460 µM) | > 500 | 500 (≈ 1460 µM) | > 500 | MIC (Aspergillus niger (An); [33]): 250 µg/mL (≈ 728 µM); MIC [3, 34]: 250 µg/mL (≈ 728 µM); MIC (Candida albicans (Ca); [21]): 500 µg/mL (≈ 1460 µM); MIC (Fusarium oxysporum (Fo); [22]): > 500 µg/mL; MIC (Bacillus subtilis (Bs); [35]): 500 µg/mL (≈ 1460 µM); MIC (Escherichia coli (Ec); [26]): 500 µg/mL (≈ 1460 µM)
N#CSCSc1nsnc1-c1ccc(C(F)(F)F)cc1 [Example XXVI, 4-(4-Trifluoromethyl-phenyl)-3-thiocyanatomethylthio-1,2,5-thiadiazole] | 500 (≈ 1500 µM) | > 500 | > 500 | – | 25 (≈ 75 µM) | – | – | 500 (≈ 1500 µM) | > 500 | – | – | 500 (≈ 1500 µM) | > 500 | 500 (≈ 1500 µM) | 500 (≈ 1500 µM) | > 500 | 500 (≈ 1500 µM) | > 500 | 500 (≈ 1500 µM) | > 500 | MIC [2, 36]: 25 µg/mL (≈ 75 µM); MIC (Aspergillus niger (An); [33]): 25 µg/mL (≈ 75 µM); MIC [3, 34]: 5 µg/mL (≈ 15 µM); MIC ([4]; 48 h, pH 5.5, read-out: Minimum Inhibitory Concentration, SC): 2.5 µg/mL (≈ 7.5 µM); MIC ([6]; 72 h, pH 5.5, read-out: Minimum Inhibitory Concentration, PC): 2.5 µg/mL (≈ 7.5 µM); MIC (Candida albicans (Ca); [21]): > 500 µg/mL; MIC (Fusarium oxysporum (Fo); [22]): > 500 µg/mL; MIC (Bacillus subtilis (Bs); [24]): 9 µg/mL (≈ 27 µM); MIC (Bacillus subtilis (Bs); pH 8.2, nutrient agar, 30° C., 48 hours, read-out: Minimum Inhibitory Concentration, Bs): 9 µg/mL (≈ 27 µM); MIC (Escherichia coli (Ec); [37]): 250 µg/mL (≈ 750 µM)
Cc1ccc(-c2nsnc2SCSC#N)cc1 [Example XXVII, 4-(4-Methylphenyl)-3-thiocyanatomethylthio-1,2,5-thiadiazole] | 500 (≈ 1790 µM) | 500 (≈ 1790 µM) | – | – | 250 (≈ 895 µM) | 9 (≈ 32.2 µM) | 9 (≈ 32.2 µM) | 500 (≈ 1790 µM) | – | 9 (≈ 32.2 µM) | 25 (≈ 89.5 µM) | 500 (≈ 1790 µM) | 500 (≈ 1790 µM) | 500 (≈ 1790 µM) | 500 (≈ 1790 µM) | 500 (≈ 1790 µM) | – | 500 (≈ 1790 µM) | 500 (≈ 1790 µM) | 500 (≈ 1790 µM) | MIC (Trichoderma viride (Tv); [38]): 100 µg/mL (≈ 358 µM); MIC [2, 36]: 25 µg/mL (≈ 89.5 µM); MIC (Aspergillus niger (An); [15]): 9 µg/mL (≈ 32.2 µM); MIC ([5]; pH 8.2, nutrient agar, 30° C., 48 hours, read-out: Minimum Inhibitory Concentration, SC): 250 µg/mL (≈ 895 µM); MIC (Candida albicans (Ca); [39]): 50 µg/mL (≈ 179 µM); MIC (Fusarium oxysporum (Fo); [40]): 25 µg/mL (≈ 89.5 µM); MIC (Bacillus subtilis (Bs); [24]): 25 µg/mL (≈ 89.5 µM); MIC (Escherichia coli (Ec); [26]): 500 µg/mL (≈ 1790 µM); MIC ([9]; pH 6.8, nutrient agar, 30° C., 48 hours, read-out: Minimum Inhibitory Concentration, PRD): 250 µg/mL (≈ 895 µM)
N#CSCSc1nsnc1-c1cccs1 [Example XXX, 4-(2-Thiophene)-3-thiocyanatomethylthio-1,2,5-thiadiazole] | 500 (≈ 1840 µM) | > 500 | – | > 500 | 500 (≈ 1840 µM) | 25 (≈ 92.1 µM) | 9 (≈ 33.2 µM) | 500 (≈ 1840 µM) | > 500 | 9 (≈ 33.2 µM) | 500 (≈ 1840 µM) | 500 (≈ 1840 µM) | > 500 | 500 (≈ 1840 µM) | 500 (≈ 1840 µM) | > 500 | 500 (≈ 1840 µM) | > 500 | 500 (≈ 1840 µM) | > 500 | MIC (Trichoderma viride (Tv); [38]): 250 µg/mL (≈ 921 µM); MIC (Aspergillus niger (An); [33]): 50 µg/mL (≈ 184 µM); MIC (Candida albicans (Ca); [39]): 100 µg/mL (≈ 368 µM); MIC (Fusarium oxysporum (Fo); [40]): 100 µg/mL (≈ 368 µM); MIC (Bacillus subtilis (Bs); [35]): 500 µg/mL (≈ 1840 µM); MIC (Escherichia coli (Ec); [37]): 250 µg/mL (≈ 921 µM)
